How the values were obtained:
Type in all cases: in vivo
[1] = tested on: barnyardgrass (Echinochloa crus-galli); test: Test A pre-/postemergence plant response
Procedure, shortened: (§1)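 Visual injury rating on a 0–100 scale (0 = no effect, 100 = complete control) was made versus untreated controls after about ten days in the greenhouse. Compounds, formulated in a non-phytotoxic solvent mix containing surfactant, were sprayed preemergence onto loam/sand soil and postemergence onto one- to two-leaf plants.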

corn (Zea mays) = test: Test A pre-/postemergence plant response
Procedure, shortened: as §1

[2] = tested on: giant foxtail (Setaria faberii); test: Test A pre-/postemergence plant response
Procedure, shortened: as §1

[3] = tested on: large crabgrass (Digitaria sanguinalis); test: Test A pre-/postemergence plant response
Procedure, shortened: as §1

[4] = tested on: morningglory (Ipomoea spp.); test: Test A pre-/postemergence plant response
Procedure, shortened: as §1

[5] = tested on: pigweed (Amaranthus retroflexus); test: Test A pre-/postemergence plant response
Procedure, shortened: as §1

[6] = tested on: velvetleaf (Abutilon theophrasti); test: Test A pre-/postemergence plant response
Procedure, shortened: as §1

[7] = tested on: wheat (Triticum aestivum); test: Test A pre-/postemergence plant response
Procedure, shortened: as §1

[8] = tested on: canarygrass (Phalaris minor); test: Test B postemergence plant response
Procedure, shortened: (§2)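 Visual ratings from 0 (no effect) to 100 (complete control), made against controls 13–15 days after treatment, kept in a greenhouse. Compounds were applied postemergence to potted plants at the 1- to 4-leaf stage (2–18 cm).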

[9] = tested on: chickweed (Stellaria media); test: Test B postemergence plant response
Procedure, shortened: as §2

[10] = tested on: windgrass (Apera spica-venti); test: Test B postemergence plant response
Procedure, shortened: as §2

[11] = tested on: winter barley (Hordeum vulgare); test: Test B postemergence plant response
Procedure, shortened: as §2

[12] = Postemergence, 125 g ai/ha, visual injury, 0 to 100 scale (0 no effect, 100 complete control), approx. ten days
[13] = Postemergence, 500 g ai/ha, 0 to 100 scale, 0 = no effect, 100 = complete control, approx. ten days
[14] = Preemergence, 125 g ai/ha, 0 to 100 scale, 0 = no effect, 100 = complete control
[15] = Preemergence, 500 g ai/ha, visual injury, 0 to 100 scale (0 no effect, 100 complete control), approx. ten days
[16] = 31 g ai/ha, postemergence, scale 0 to 100, 0 is no effect, 100 is complete control
[17] = Postemergence, 62 g ai/ha, scale 0 (no effect) to 100 (complete control), 13 to 15 days
[18] = Postemergence, 125 g ai/ha, visual rating after 13 to 15 days, scale 0 (no effect) to 100 (complete control)
[19] = Postemergence, 250 g ai/ha, scale 0 to 100 (0 no effect, 100 complete control)

O=C1CCCC(O)=C1C(=O)c1cnc(-c2ccsc2)n(-c2ccccc2)c1=O [Compound 56]
Barnyardgrass plant response rating [1, 12]: 90
Plant response rating, Barnyardgrass [1, 13]: 90
Plant response rating, Barnyardgrass [1, 14]: 50
Plant response rating, Barnyardgrass [1, 15]: 90
Corn plant response rating (corn (Zea mays); [12]): 10
Plant response rating, Corn (corn (Zea mays); [13]): 50
Plant response rating, Corn (corn (Zea mays); [14]): 0
Plant response rating, Corn (corn (Zea mays); [15]): 0
Foxtail, Giant plant response rating [2, 12]: 80
Plant response rating, Foxtail, Giant [2, 13]: 90
Plant response rating, Foxtail, Giant [2, 14]: 70
Plant response rating, Foxtail, Giant [2, 15]: 90
Crabgrass, Large plant response rating [3, 12]: 80
Plant response rating, Crabgrass, Large [3, 13]: 90
Plant response rating, Crabgrass, Large [3, 14]: 80
Plant response rating, Crabgrass, Large [3, 15]: 90
Morningglory plant response rating [4, 12]: 90
Plant response rating, Morningglory [4, 13]: 100
Plant response rating, Morningglory [4, 14]: 50
Plant response rating, Morningglory [4, 15]: 90
Pigweed plant response rating [5, 12]: 90
Plant response rating, Pigweed [5, 13]: 100
Plant response rating, Pigweed [5, 14]: 90
Plant response rating, Pigweed [5, 15]: 100
Velvetleaf plant response rating [6, 12]: 100
Plant response rating, Velvetleaf [6, 13]: 100
Plant response rating, Velvetleaf [6, 14]: 80
Plant response rating, Velvetleaf [6, 15]: 100
Wheat plant response rating [7, 12]: 0
Plant response rating, Wheat [7, 13]: 0
Plant response rating, Wheat [7, 14]: 0
Plant response rating, Wheat [7, 15]: 0
Plant response rating, Canarygrass [8, 16]: 0
Plant response rating, Canarygrass [8, 17]: 30
Plant response rating, Canarygrass [8, 18]: 40
Plant response rating, Canarygrass [8, 19]: 40
Plant response rating, Chickweed [9, 16]: 90
Plant response rating, Chickweed [9, 17]: 95
Plant response rating, Chickweed [9, 18]: 98
Plant response rating, Chickweed [9, 19]: 98
Plant response rating, Windgrass [10, 16]: 30
Plant response rating, Windgrass [10, 17]: 40
Plant response rating, Windgrass [10, 18]: 60
Plant response rating, Windgrass [10, 19]: 85
Plant response rating, Barley [11, 16]: 0
Plant response rating, Barley [11, 17]: 10
Plant response rating, Barley [11, 18]: 30

O=C1CCCC(O)=C1C(=O)c1cnc(-c2ccccc2)n(CC2CCCO2)c1=O (stereo not drawn) [Compound 59]
Barnyardgrass plant response rating [1, 12]: 90
Plant response rating, Barnyardgrass [1, 13]: 90
Plant response rating, Barnyardgrass [1, 14]: 40
Plant response rating, Barnyardgrass [1, 15]: 90
Corn plant response rating (corn (Zea mays); [12]): 10
Plant response rating, Corn (corn (Zea mays); [13]): 30
Plant response rating, Corn (corn (Zea mays); [14]): 0
Plant response rating, Corn (corn (Zea mays); [15]): 0
Foxtail, Giant plant response rating [2, 12]: 80
Plant response rating, Foxtail, Giant [2, 13]: 90
Plant response rating, Foxtail, Giant [2, 14]: 50
Plant response rating, Foxtail, Giant [2, 15]: 80
Crabgrass, Large plant response rating [3, 12]: 90
Plant response rating, Crabgrass, Large [3, 13]: 100
Plant response rating, Crabgrass, Large [3, 14]: 90
Plant response rating, Crabgrass, Large [3, 15]: 100
Morningglory plant response rating [4, 12]: 100
Plant response rating, Morningglory [4, 13]: 100
Plant response rating, Morningglory [4, 15]: 90
Pigweed plant response rating [5, 12]: 100
Plant response rating, Pigweed [5, 13]: 100
Plant response rating, Pigweed [5, 14]: 90
Plant response rating, Pigweed [5, 15]: 100
Velvetleaf plant response rating [6, 12]: 100
Plant response rating, Velvetleaf [6, 13]: 100
Plant response rating, Velvetleaf [6, 14]: 100
Plant response rating, Velvetleaf [6, 15]: 100
Wheat plant response rating [7, 12]: 0
Plant response rating, Wheat [7, 13]: 10
Plant response rating, Wheat [7, 14]: 0
Plant response rating, Wheat [7, 15]: 0
Plant response rating, Canarygrass [8, 16]: 5
Plant response rating, Canarygrass [8, 17]: 5
Plant response rating, Canarygrass [8, 18]: 50
Plant response rating, Canarygrass [8, 19]: 70
Plant response rating, Chickweed [9, 16]: 85
Plant response rating, Chickweed [9, 17]: 98
Plant response rating, Chickweed [9, 18]: 98
Plant response rating, Chickweed [9, 19]: 100
Plant response rating, Windgrass [10, 16]: 20
Plant response rating, Windgrass [10, 17]: 60
Plant response rating, Windgrass [10, 18]: 60
Plant response rating, Windgrass [10, 19]: 70
Plant response rating, Barley [11, 16]: 0
Plant response rating, Barley [11, 17]: 0
Plant response rating, Barley [11, 18]: 10
Plant response rating, Barley [11, 19]: 10

CCCCc1ncc(C(=O)C2=C(O)CCCC2=O)c(=O)n1-c1cccc(C)c1 [Compound 63]
Barnyardgrass plant response rating [1, 12]: 70
Plant response rating, Barnyardgrass [1, 13]: 90
Plant response rating, Barnyardgrass [1, 14]: 10
Plant response rating, Barnyardgrass [1, 15]: 90
Corn plant response rating (corn (Zea mays); [12]): 10
Plant response rating, Corn (corn (Zea mays); [13]): 50
Plant response rating, Corn (corn (Zea mays); [14]): 0
Plant response rating, Corn (corn (Zea mays); [15]): 0
Foxtail, Giant plant response rating [2, 12]: 60
Plant response rating, Foxtail, Giant [2, 13]: 80
Plant response rating, Foxtail, Giant [2, 14]: 50
Plant response rating, Foxtail, Giant [2, 15]: 80
Crabgrass, Large plant response rating [3, 12]: 80
Plant response rating, Crabgrass, Large [3, 13]: 90
Plant response rating, Crabgrass, Large [3, 14]: 90
Plant response rating, Crabgrass, Large [3, 15]: 100
Morningglory plant response rating [4, 12]: 100
Plant response rating, Morningglory [4, 13]: 100
Plant response rating, Morningglory [4, 14]: 10
Plant response rating, Morningglory [4, 15]: 70
Pigweed plant response rating [5, 12]: 90
Plant response rating, Pigweed [5, 13]: 100
Plant response rating, Pigweed [5, 14]: 100
Plant response rating, Pigweed [5, 15]: 100
Velvetleaf plant response rating [6, 12]: 100
Plant response rating, Velvetleaf [6, 13]: 100
Plant response rating, Velvetleaf [6, 14]: 80
Plant response rating, Velvetleaf [6, 15]: 90
Wheat plant response rating [7, 12]: 0
Plant response rating, Wheat [7, 13]: 0
Plant response rating, Wheat [7, 15]: 0
Plant response rating, Canarygrass [8, 16]: 0
Plant response rating, Canarygrass [8, 17]: 0
Plant response rating, Canarygrass [8, 18]: 0
Plant response rating, Canarygrass [8, 19]: 0
Plant response rating, Chickweed [9, 16]: 60
Plant response rating, Chickweed [9, 17]: 65
Plant response rating, Chickweed [9, 18]: 80
Plant response rating, Chickweed [9, 19]: 95
Plant response rating, Windgrass [10, 16]: 10
Plant response rating, Windgrass [10, 17]: 30
Plant response rating, Windgrass [10, 18]: 40
Plant response rating, Windgrass [10, 19]: 60
Plant response rating, Barley [11, 16]: 0
Plant response rating, Barley [11, 17]: 0
Plant response rating, Barley [11, 18]: 0
Plant response rating, Barley [11, 19]: 0

Source: patent US8952024B2, “Herbicidal pyrimidone derivatives” (E I du Pont de Nemours and Company, priority 2009, dated 2015)
